Reference: patent US8748369B2, “Use of targeted nitroxide agents in bone healing” (University of Pittsburgh-Of the Commonwealth System of …, priority 2009, dated 2014)

Tested on: NOD/SCID mice
Test: Proposed: human marrow stromal cell seeding into irradiated limbs of NOD/SCID mice
Type: in vivo, mouse
Conditions: MnSOD-PL prior to cell infusion; JP4-039 daily after cell transplantation
Description: The following can be used to select and optimize the best GS-nitroxide JP4-039 (radiation damage mitigator drug) that can enhance human bone marrow stromal cell and fresh human stromal cell line seeding efficiency into irradiated limbs of NOD/SCID mice. MnSOD-overexpressing cells are a positive control.
A. Experiments with KM101-MnSOD/ds-red (control KM101-ds-red) clonal cell lines. Groups of 12 NOD/SCID mice receive 300 cGy total body irradiation (low dose leg) and a 1000 cGy boost to the left hind leg (high dose leg), then 24 hours later intravenous injection of 1×10^5 or 1×10^6 cells of each cell line (groups 1 and 2). Group 3 is mice that receive MnSOD-PL intravenously 24 hours prior to irradiation and then injection of KM101-MnSOD/ds-red. […] This experiment may be conducted essentially as described above (A), with all groups, but with a sub-group receiving JP4-039 (24 hours) after radiation (same day as cell lines are injected, or a sub-group receiving intraperitoneal JP4-039 (daily or weekly after cell line transplantation). Cells may be explanted from the high dose and low dose irradiated femurs at days 7, 14, 21, and cultured in vitro for human stromal colony forming progenitor cells (CFU-F). The percent and total number of human cells entering the high dose and low dose irradiated limbs can be quantitated by cell sorting for ds-red. […]

CC(C)C[C@@H](/C=C/CC(=O)NC1CC(C)(C)N([O])C(C)(C)C1)NC(=O)OC(C)(C)C [JP4-039, (S,E)-5-(tert-Butoxycarbonylamino)-7-methyloct-3-enoic acid-TEMPO]
engraftment of KM101 stromal cell lines: facilitate improved stability of engraftment
